Source: patent US20240156756A1 (Steel Therapeutics, Inc., priority 2021, published 2024)
Structures can show the parent of a compound that is named as a salt. Where two headings read alike, the source gives them in different places.

Legend:
[1] = for stability of control sample (active only, no excipient): HPLC impurities
chronic anal fissures = settings: cream containing 0.5% nifedipine for four weeks; cited from earlier work

| SMILES | stability of control sample (active only, no excipient) ([1]; T0, both temperatures (RT & 40° C.)) | degradation in any excipient combinations ([1]; T0, both temperatures (RT & 40° C.), major = >5%) | degradation in DEC combinations ([1]; T4 weeks, Benzyl Alcohol and Oleyl alcohol combinations) | major degradation in DEC combinations ([1]; T4 weeks, RT & 40° C., combinations of Transcutol, DMI, and PEG 400) [%] | stability of control sample (active only, no excipient) ([1]; T4 weeks, both temperatures (RT & 40° C.)) | patients experienced healing (chronic anal fissures) [%] |
| --- | --- | --- | --- | --- | --- | --- |
| CCN(CC)CC(=O)Nc1c(C)cccc1C [Lidocaine HCl, 2-(diethylamino)-N-(2,6-dimethylphenyl)acetamide;hydrochloride] | stable | No major degradation | Slight degradation | > 5 | stable |  |
| COC(=O)C1=C(C)NC(C)=C(C(=O)OC)C1c1ccccc1[N+](=O)[O-] [Nifedipine, dimethyl 2,6-dimethyl-4-(2-nitrophenyl)-1,4-dihydropyridine-3,5-dicarboxylate] |  |  |  |  |  | 70 |
